{"source": "patent US20240400986A1", "about": "“MEMBRANE BOUND COMPOSITIONS AND METHODS RELATING TO SAME” (FLAGSHIP PIONEERING INNOVATIONS VII, LLC, priority 2021, published 2024)", "key": {"[1]": {"tested_on": "neuronal cell line derived from human neuroblastoma", "experiment": "Small molecule compound screen of gigasome production in neuronal monocultures", "text": "To quantify and characterize gigasome production using microscopy, while tracking cell viability/phenotype, a multi-readout system was developed that allowed simultaneous analysis of gigasomes harvested from cell culture media supernatants and respective gigasome producing cell viability. […] For the screening, a total of 99 compounds (TargetMol) were divided in 5 groups. Each group included an untreated condition, a vehicular DMSO control, and a known high-gigasome producing condition to comparatively study gigasome production rates. As a cell death control group, 500 nM Staurosporine was added to induce apoptosis. Cultures were incubated for 24 hours under gigasome inducing conditions at concentrations ranging between 10 nM and 10,000 nM. Before the end of the treatment, live neuronal cultures were imaged. The Zeiss ZEN Blue software was used to distribute imaging fields of view (positions) to create an unbiased imaging sample of a well. 5 images were taken using a Zeiss LSM 900 confocal microscope. […] The BioApps ZEN software package was used to perform cell nucleus segmentation and counting. After 24 hours, gigasomes were harvested from the cell culture media by gently removing from the top of each 96-well ⅔ of the total volume without disturbing the cell layer (containing the settled gigasomes) and by adding to each well the same amount of PBS. The wells were washed twice gently, and the gigasome-containing media/PBS wash was transferred into the well of a 384-well glass bottom plate. Cells remaining in the 96-well plates were assessed for viability using CellTiter-Glo (Promega).\nFor gigasome analysis in 384-well plates, the Zeiss ZEN Blue software was used to distribute positions to create an unbiased imaging sample of a well. 6 images per well were taken using a Zeiss LSM 900 confocal microscope.\nA watershed binary segmentation step was performed to separate grouped objects. For each particle in the mask, characteristic parameters of the particle were calculated and saved.\nParticles of interest were identified by thresholding by area and circularity. […] Circularity, defined by the formula 4pi(area/perimeter^2, was set to be between 0.8 and 1, where a value of 1.0 is a perfect circle, and a value of 0 is a line. Gigasomes were identified from the particles of interest by thresholding by mean nuclear signal. The nuclear signal threshold was set using a value equal to one fourth of a threshold value calculated by the Li auto-threshold algorithm applied to the distribution of all particles of interest. Particles of interest with nuclear signal below this value were considered “negative” for nuclear material and were identified as gigasomes. A sampling factor was calculated to extrapolate the total quantity of a type of object (particles, particles of interest, gigasomes) in the well. The sampling factor was the percentage of the well's area that was imaged. […] The normalized quantity or distribution of objects was described as a quantity or distribution of objects per 1000 cells."}, "neuronal cells": {"tested_on": "neuronal cells", "experiment": "Gigasome-mediated extraction of stress granule-associated protein HuR (fixed plates, confocal)", "type": "cell-based, human", "procedure": "For this paradigm, cells were treated with a low sodium arsenite concentration of 5 μM either alone or in combination with the proteasome inhibitor MG-132 at 0.2 μM. A vehicular control amount of DMSO was added to the media to comparatively study cargo signals within cells and gigasomes. Treatments were carried out in reduced serum-containing media for 24 hours to mimic a chronic exposure to arsenite. The presence of the stress-granule-related cargo within cells and in gigasomes was characterized and quantified by confocal microscopy analysis of 4% paraformaldehyde. Non-specific labeling was blocked by incubation with 5% normal goat serum in PBS in the presence of 0.1% Triton X-100, for 2 h at room temperature, followed by immunolabeling with an antibody against the RNA-binding protein HuR (see Table 12) and incubation with Alexa Fluor® 568 secondary antibodies. Phalloidin Alexa Fluor® 488 was used to mark the proximal plasma membrane. Nuclei were counterstained with DAPI.\nImages were captured using a Zeiss LSM 900 confocal microscope and a 40× objective. For analysis, 10×16-bit images per well were processed to obtain a final total range of 75-200 cells. Composite images were separated in the different channels. The background was subtracted from the red cargo-related channel, as described in Example 13a. The nuclear signal in the blue channel was thresholded using the “Yen” autothreshold algorithm. To measure the nuclear-to-cytosolic translocation of the stress-granule-related protein cargo upon treatment, firstly, the cargo-related nuclear signal was subtracted from the respective red channel image by creating a nuclear selection from the thresholded blue channel image, which was added to ImageJ Manager. The nuclear selection was then transferred to the background-subtracted red channel and the nuclear cargo signal was removed from the image leaving only the cytosolic signal. The cleared red channel image was thresholded using the “default” autothreshold algorithm for downstream particle analysis. To measure the cytosolic cargo signal, a cellular mask was then generated by thresholding the Green/F-actin channel using the “Li” autothreshold method. A cytosolic selection was created, added to ImageJ Manager, and transferred to the background subtracted, nuclear-cleared red channel image. The cytosolic cargo signal (integrated density) was measured and normalized to the number of nuclei counted in each field. Particle analysis was performed as described in Example 13a, using the thresholded green channel to identify particles of interest by filtering by area and circularity and re-directing to the blue and red channel for absence of nuclear signal and eventual presence of disease-related cargo, respectively. The quantity or distribution of objects obtained from the particle analysis was obtained as described in Example 13a."}}, "note": "Peptide text beside a SMILES is read from it. * marks the point of attachment. Cbz = O=C(OCc1ccccc1)*", "data": [{"smiles": "CC(C)C[C@@H](C=O)NC(=O)[C@H](CC(C)C)NC(=O)[C@H](CC(C)C)NC(=O)OCc1ccccc1", "note": "[MG-132, reference compound] (Cbz-Leu-Leu-Leu-aldehyde)", "values": [{"measurement": "fold induction at 0.1 µM", "setting": "[1]; Homo sapiens, 24 h, read-out: Fold Change of Gigasomes Produced vs. DMSO", "result": "1.5 to 1.75"}, {"measurement": "Number of Gigasomes Produced", "setting": "[1]; neuronal cells, dose 100 nM, 24 hours", "result": "55-65"}, {"measurement": "HuR cytosolic signal", "setting": "neuronal cells; 5 μM sodium arsenite, 0.2 μM MG-132, alone or combined, 24 h, compared to DMSO (FIG. 7B)", "result": "increased"}, {"measurement": "HuR+ve particle intensity distribution (gigasome diameter and brightness)", "setting": "neuronal cells; FIG. 7E", "result": "larger in diameter and brighter"}, {"measurement": "HuR average intensity within gigasomes", "setting": "neuronal cells; compared to sodium arsenite alone and DMSO (FIG. 7D)", "result": "higher"}]}]}
